From patent publication US20140343000A1 (priority 2011, published 2014) come the findings set out here.

As a reminder, the EC50 is the concentration giving half of the maximal effect.

For the first assay, the system named is recombinant NL4-3 virus (Renilla luciferase in nef, Gag P373S; NLRluc) in MT-2 cells. As to the kind of experiment: whole plant or invertebrate. The settings on record: Renilla, NL43, luciferase activity in cells infected for 4-5 days with NLRluc recombinants, serial dilutions of inhibitor; class symbols (key in Table 1); read-out: EC50. Format: cell-based, HIV. The method, boiled down: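 Read-out is Renilla luciferase, measured immediately after adding a premixed lysis/Dual Luciferase reagent. The reporter virus, NL4-3 with luciferase replacing part of nef plus Gag P373S, infected MT-2 cells for 4–5 days under serially diluted inhibitor.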
In the case of `C=C(C)[C@@H]1CC[C@]2(NC(=O)CNc3ccc(F)cc3)CC[C@]3(C)[C@H](CC[C@@H]4[C@@]5(C)CC=C(c6ccc(C(=O)O)cc6)C(C)(C)[C@@H]5CC[C@]43C)[C@@H]12` [Example 125, 4-((1R,3aS,5aR,5bR,7aR,11aS,11bR,13aR,13bR)-3a-(2-(4-fluorophenylamino)acetamido)-5a,5b,8,8,11a-pentamethyl-1-(prop-1-en-2-yl)-2,3,3a,4,5,5a,5b,6,7,7a,8,11,11a,11b,12,13,13a,13b-octadecahydro-1H-cyclopenta[a]chrysen-9-yl)benzoic acid], the EC50 is less than 100 nM. Regarding `C=C(C)[C@@H]1CC[C@]2(NC(=O)Cc3ncccn3)CC[C@]3(C)[C@H](CC[C@@H]4[C@@]5(C)CC=C(c6ccc(C(=O)O)cc6)C(C)(C)[C@@H]5CC[C@]43C)[C@@H]12` [Example 126, 4-((1R,3aS,5aR,5bR,7aR,11aS,11bR,13aR,13bR)-5a,5b,8,8,11a-pentamethyl-1-(prop-1-en-2-yl)-3a-(2-(pyrimidin-2-yl)acetamido)-2,3,3a,4,5,5a,5b,6,7,7a,8,11,11a,11b,12,13,13a,13b-octadecahydro-1H-cyclopenta[a]chrysen-9-yl)benzoic acid], the EC50 was less than 100 nM. For the compound `C=C(C)[C@@H]1CC[C@]2(NC(=O)Cc3ccccn3)CC[C@]3(C)[C@H](CC[C@@H]4[C@@]5(C)CC=C(c6ccc(C(=O)O)cc6)C(C)(C)[C@@H]5CC[C@]43C)[C@@H]12` [Example 127, 4-((1R,3aS,5aR,5bR,7aR,11aS,11bR,13aR,13bR)-5a,5b,8,8,11a-pentamethyl-1-(prop-1-en-2-yl)-3a-(2-(pyridin-2-yl)acetamido)-2,3,3a,4,5,5a,5b,6,7,7a,8,11,11a,11b,12,13,13a,13b-octadecahydro-1H-cyclopenta[a]chrysen-9-yl)benzoic acid], the EC50 was less than 100 nM.

`CC(C)[C@@H]1CC[C@]2(NC(=O)CN3CCS(=O)(=O)CC3)CC[C@]3(C)[C@H](CC[C@@H]4[C@@]5(C)CC=C(c6ccc(C(=O)O)cc6)C(C)(C)[C@@H]5CC[C@]43C)[C@@H]12` [Example 129, 4-((1S,3aS,5aR,5bR,7aR,11aS,11bR,13aR,13bR)-3a-(((1,1-dioxido-4-thiomorpholinyl)acetyl)amino)-1-isopropyl-5a,5b,8,8,11a-pentamethyl-2,3,3a,4,5,5a,5b,6,7,7a,8,11,11a,11b,12,13,13a,13b-octadecahydro-1H-cyclopenta[a]chrysen-9-yl)benzoic acid]: the EC50 is less than 100 nM. As to `CC(C)[C@@H]1CC[C@]2(NC(=O)CN3CCS(=O)(=O)CC3)CC[C@]3(C)[C@H](CC[C@@H]4[C@@]5(C)CC[C@H](c6ccc(C(=O)O)cc6)C(C)(C)[C@@H]5CC[C@]43C)[C@@H]12` [Example 130, 4-((1S,3aS,5aR,5bR,7aS,9S,11aS,11bR,13aR,13bR)-3a-(((1,1-dioxido-4-thiomorpholinyl)acetyl)amino)-1-isopropyl-5a,5b,8,8,11a-pentamethylicosahydro-1H-cyclopenta[a]chrysen-9-yl)benzoic acid], the EC50 was less than 100 nM. For the compound `C=C(C)[C@@H]1CC[C@]2(NC(=O)C(=O)O)CC[C@]3(C)[C@H](CC[C@@H]4[C@@]5(C)CC=C(c6ccc(C(=O)O)cc6)C(C)(C)[C@@H]5CC[C@]43C)[C@@H]12` [Example 130-1, 4-((1R,3aS,5aR,5bR,7aR,11aS,11bR,13aR,13bR)-3a-(carboxyformamido)-5a,5b,8,8,11a-pentamethyl-1-(prop-1-en-2-yl)-2,3,3a,4,5,5a,5b,6,7,7a,8,11,11a,11b,12,13,13a,13b-octadecahydro-1H-cyclopenta[a]chrysen-9-yl)benzoic acid], the EC50 is more than 100 nM. Take `C=C(C)[C@@H]1CC[C@]2(NC(=O)C3(NC(=O)OC(C)(C)C)CC3)CC[C@]3(C)[C@H](CC[C@@H]4[C@@]5(C)CC=C(c6ccc(C(=O)O)cc6)C(C)(C)[C@@H]5CC[C@]43C)[C@@H]12` [Example 130-2, 4-((1R,3aS,5aR,5bR,7aR,11aS,11bR,13aR,13bR)-3a-(1-(tert-butoxycarbonylamino)cyclopropanecarboxamido)-5a,5b,8,8,11a-pentamethyl-1-(prop-1-en-2-yl)-2,3,3a,4,5,5a,5b,6,7,7a,8,11,11a,11b,12,13,13a,13b-octadecahydro-1H-cyclopenta[a]chrysen-9-yl)benzoic acid]: the EC50 was less than 100 nM.

With `C=C(C)[C@@H]1CC[C@]2(NC(=O)[C@@H]3C[C@H](NC(=O)OCc4ccccc4)C3(C)C)CC[C@]3(C)[C@H](CC[C@@H]4[C@@]5(C)CC=C(c6ccc(C(=O)O)cc6)C(C)(C)[C@@H]5CC[C@]43C)[C@@H]12` [Example 130-3, 4-((1R,3aS,5aR,5bR,7aR,11aS,11bR,13aR,13bR)-3a-((1R,3S)-3-(((benzyloxy)carbonyl)amino)-2,2-dimethylcyclobutanecarboxamido)-5a,5b,8,8,11a-pentamethyl-1-(prop-1-en-2-yl)-2,3,3a,4,5,5a,5b,6,7,7a,8,11,11a,11b,12,13,13a,13b-octadecahydro-1H-cyclopenta[a]chrysen-9-yl)benzoic acid], the EC50 was less than 100 nM. Consider `C=C(C)[C@@H]1CC[C@]2(NS(=O)(=O)Cc3ccccn3)CC[C@]3(C)[C@H](CC[C@@H]4[C@@]5(C)CC=C(c6ccc(C(=O)O)cc6)C(C)(C)[C@@H]5CC[C@]43C)[C@@H]12` [Example 131, 4-((1R,3aS,5aR,5bR,7aR,11aS,11bR,13aR,13bR)-5a,5b,8,8,11a-pentamethyl-1-(prop-1-en-2-yl)-3a-(pyridin-2-ylmethylsulfonamido)-2,3,3a,4,5,5a,5b,6,7,7a,8,11,11a,11b,12,13,13a,13b-octadecahydro-1H-cyclopenta[a]chrysen-9-yl)benzoic acid], for which the EC50 is less than 100 nM. On to `C=C(C)[C@@H]1CC[C@]2(NCc3ccnc(F)c3)CC[C@]3(C)[C@H](CC[C@@H]4[C@@]5(C)CC=C(c6ccc(C(=O)O)cc6)C(C)(C)[C@@H]5CC[C@]43C)[C@@H]12` [Example 132, 4-((1R,3aS,5aR,5bR,7aR,11aS,11bR,13aR,13bR)-3a-((2-fluoropyridin-4-yl)methylamino)-5a,5b,8,8,11a-pentamethyl-1-(prop-1-en-2-yl)-2,3,3a,4,5,5a,5b,6,7,7a,8,11,11a,11b,12,13,13a,13b-octadecahydro-1H-cyclopenta[a]chrysen-9-yl)benzoic acid], for which the EC50 was less than 100 nM. Consider `C=C(C)[C@@H]1CC[C@]2(NCCS(=O)(=O)CCO)CC[C@]3(C)[C@H](CC[C@@H]4[C@@]5(C)CC=C(c6ccc(C(=O)O)cc6)C(C)(C)[C@@H]5CC[C@]43C)[C@@H]12` [Example 135, 4-((1R,3aS,5aR,5bR,7aR,11aS,11bR,13aR,13bR)-3a-(2-(2-hydroxyethylsulfonyl)ethylamino)-5a,5b,8,8,11a-pentamethyl-1-(prop-1-en-2-yl)-2,3,3a,4,5,5a,5b,6,7,7a,8,11,11a,11b,12,13,13a,13b-octadecahydro-1H-cyclopenta[a]chrysen-9-yl)benzoic acid], for which the EC50 was less than 100 nM. For `C=C(C)[C@@H]1CC[C@]2(NCCS(C)(=O)=O)CC[C@]3(C)[C@H](CC[C@@H]4[C@@]5(C)CC=C(c6ccc(C(=O)O)cc6)C(C)(C)[C@@H]5CC[C@]43C)[C@@H]12` [Example 136, 4-((1R,3aS,5aR,5bR,7aR,11aS,11bR,13aR,13bR)-5a,5b,8,8,11a-pentamethyl-3a-(2-(methylsulfonyl)ethylamino)-1-(prop-1-en-2-yl)-2,3,3a,4,5,5a,5b,6,7,7a,8,11,11a,11b,12,13,13a,13b-octadecahydro-1H-cyclopenta[a]chrysen-9-yl)benzoic acid], the EC50 is less than 100 nM. Turning to `C=C(C)[C@@H]1CC[C@]2(NCCN3CCS(=O)(=O)CC3)CC[C@]3(C)[C@H](CC[C@@H]4[C@@]5(C)CC=C(c6ccc(C(=O)O)cc6)C(C)(C)[C@@H]5CC[C@]43C)[C@@H]12` [Example 137, 4-((1R,3aS,5aR,5bR,7aR,11aS,11bR,13aR,13bR)-3a-((2-(1,1-dioxido-4-thiomorpholinyl)ethyl)amino)-1-isopropenyl-5a,5b,8,8,11a-pentamethyl-2,3,3a,4,5,5a,5b,6,7,7a,8,11,11a,11b,12,13,13a,13b-octadecahydro-1H-cyclopenta[a]chrysen-9-yl)benzoic acid], the EC50 is less than 100 nM.

The same assay, now with this note: Renilla, NL43, luciferase activity in cells infected for 4-5 days with NLRluc recombinants, serial dilutions of inhibitor; numeric values; read-out: EC50.
For the compound `C=C(C)[C@@H]1CC[C@]2(NCc3ccc(F)cn3)CC[C@]3(C)[C@H](CC[C@@H]4[C@@]5(C)CC=C(c6ccc(C(=O)O)cc6)C(C)(C)[C@@H]5CC[C@]43C)[C@@H]12` [Example 133, 4-((1R,3aS,5aR,5bR,7aR,11aS,11bR,13aR,13bR)-3a-((5-fluoropyridin-2-yl)methylamino)-5a,5b,8,8,11a-pentamethyl-1-(prop-1-en-2-yl)-2,3,3a,4,5,5a,5b,6,7,7a,8,11,11a,11b,12,13,13a,13b-octadecahydro-1H-cyclopenta[a]chrysen-9-yl)benzoic acid], the EC50 was 30 nM. For the compound `C=C(C)[C@@H]1CC[C@]2(NCc3ncccc3C(F)(F)F)CC[C@]3(C)[C@H](CC[C@@H]4[C@@]5(C)CC=C(c6ccc(C(=O)O)cc6)C(C)(C)[C@@H]5CC[C@]43C)[C@@H]12` [Example 134, 4-((1R,3aS,5aR,5bR,7aR,11aS,11bR,13aR,13bR)-5a,5b,8,8,11a-pentamethyl-1-(prop-1-en-2-yl)-3a-((3-(trifluoromethyl)pyridin-2-yl)methylamino)-2,3,3a,4,5,5a,5b,6,7,7a,8,11,11a,11b,12,13,13a,13b-octadecahydro-1H-cyclopenta[a]chrysen-9-yl)benzoic acid], the EC50 was 100 nM.
